Source: a melting point compilation (Tetko et al.; mined from patent text by program, amines drawn as free bases though some values may be those of a salt)

Q: Which melting point does the source give for `O=C(O)/C=C/C(=O)/C=C/c1ccc(F)cc1` here?
A: The melting point was 160 to 162 °C.

Q: With `COc1ccc(C(=O)c2ccc(OCc3nc(-c4ccccc4)oc3C)cc2)c(OC(F)(F)C(=O)O)c1` as the compound, how does the melting point read?
A: The melting point was 166 to 167 °C.

Q: With `CCc1cc(OCc2ccc(-c3ccccc3-c3nnnn3-c3ccc(C#N)cc3)cc2)c2ccccc2n1` as the compound, how does the melting point read?
A: The melting point was 165 to 166 °C.

Q: For `Nc1nc2c(sc(=O)n2Cc2ccccc2)c(=O)[nH]1`, which melting point is on record?
A: Its melting point is greater than 320 °C.

Q: Which melting point does the source give for `CCCCC(CC)COc1c(-c2ccc(S(C)(=O)=O)cc2)cnn(-c2ccc(F)cc2)c1=O` (stereo not drawn) here?
A: Its melting point is 120 to 122 °C.

Q: With `COc1cccc(C(=O)NCc2cccc3c2CN(C2CCC(=O)NC2=O)C3=O)c1` (stereo not drawn) as the compound, how does the melting point read?
A: The melting point was 244 to 246 °C.

Q: Which melting point does the source give for `CN(C)CCCN=C1CC(c2ccc(C(F)(F)F)cc2)Cc2c1c(=O)c1cc(Cl)ccc1n2O` (stereo not drawn) here?
A: Its melting point is 130 to 135 °C.

Q: With `O=S(=O)(OC(c1cccc(C(OS(=O)(=O)c2ccc(Cl)cc2)(C(F)(F)F)C(F)(F)F)c1)(C(F)(F)F)C(F)(F)F)c1ccc(Cl)cc1` as the compound, how does the melting point read?
A: The melting point was 125 °C.

Q: For `CC(=O)NCC1CN(c2ccc(N3CCN(c4nnc(C(F)(F)F)s4)CC3)c(F)c2)C(=O)O1` (stereo not drawn), which melting point is on record?
A: Its melting point is 255 to 257 °C.

Q: With `CC(C)(C)Sc1c(CC(C)(C)C(=O)O)n(Cc2ccc(Cl)cc2)c2ccc(OCc3ccc4ccccc4n3)cc12` as the compound, how does the melting point read?
A: Its melting point is 208 °C.

Q: For `CCC1(CC)C(=O)Nc2ccc(-c3cccc(Cl)c3)cc21`, which melting point is on record?
A: The melting point was 156 to 159 °C.

Q: With `O=C(Nc1ccc(-n2nc(C(F)(F)F)cc2C(F)(F)F)cc1)c1ccccc1C(F)(F)F` as the compound, how does the melting point read?
A: The melting point was 133 to 135 °C.

Q: With `Cn1c(COc2nn3c(-c4ccccc4F)nncc3c2-c2ccccc2F)nc2ccccc21` as the compound, how does the melting point read?
A: Its melting point is 218 to 220 °C.

Q: With `CCCCCCCCCCCCC1N(C)c2cccc3cccc(c23)N1C` as the compound, how does the melting point read?
A: Its melting point is 30 to 32 °C.

Q: For `CN1C(=O)C2(CCN(CCCC(=O)c3ccc(F)cc3)CC2)c2ccccc21`, which melting point is on record?
A: Its melting point is 95 to 96.5 °C.

Q: Which melting point does the source give for `O=c1n(CC(F)(F)F)c2cc(F)ccc2n1C1CCNCC1` here?
A: The melting point was greater than 280 °C.

Q: For `CCNc1cccnc1N1CCN(Cc2cc(C)c(O)c(C)c2)CC1`, which melting point is on record?
A: Its melting point is 203 to 206 °C.

Q: For `COc1cc(OC)nc(Oc2nccc(-c3ccccc3)c2C(=O)O)n1`, which melting point is on record?
A: The melting point was 165 to 169 °C.

Q: For `CC1(C(F)(F)F)C=C(C(=O)NCCC#N)c2cc([N+](=O)[O-])ccc2O1` (stereo not drawn), which melting point is on record?
A: The melting point was 191 to 193 °C.

Q: With `CC(=O)Nc1cccc(/C=C/C(=O)N2CC(CCl)c3c2cc([N+](=O)[O-])c2ccccc32)c1` (stereo not drawn) as the compound, how does the melting point read?
A: Its melting point is 214 to 216 °C.

Q: With `Cc1cccc(C(=O)Nc2c[nH]nc2C(=O)NCC(C)(C)C#N)n1` as the compound, how does the melting point read?
A: The melting point was 250 to 251 °C.

Q: Which melting point does the source give for `CN(C)c1ccc(NC(=O)N(Cc2ccco2)C[C@H]2CC[C@H](CN(Cc3ccco3)C(=O)Nc3ccc(N(C)C)cc3)CC2)cc1` here?
A: The melting point was 129 to 132 °C.

Q: Which melting point does the source give for `CCc1cc(O)c2c(ccc3nc[nH]c32)n1` here?
A: The melting point was 309 to 317 °C.

Q: Which melting point does the source give for `BrCCc1ccc2c(c1)CCO2` here?
A: The melting point was 60 to 62 °C.

Q: With `CC(=O)OCc1c(Br)cccc1N1CCn2c(nc3c2CCCC3)C1=O` as the compound, how does the melting point read?
A: The melting point was 205 to 206 °C.

Q: For `O=Cc1cc(OCCCC(=O)O)ccc1[N+](=O)[O-]`, which melting point is on record?
A: Its melting point is 112 to 114 °C.

Q: For `CN1C=C(N2CCCC2)c2ccc3ccccc3c2S1(=O)=O`, which melting point is on record?
A: The melting point was 176 to 178 °C.

Q: For `CCNC(=O)[C@@H]1CCCN1C(=O)[C@H](C)NC(=O)C1CCCCC1`, which melting point is on record?
A: Its melting point is 190 to 192 °C.

Q: Which melting point does the source give for `Fc1cnc(Nc2nc3c(s2)CCN(CCCN2CCC(F)(F)CC2)c2n[nH]cc2-3)nc1` here?
A: The melting point was 238 to 240 °C.

Q: Which melting point does the source give for `O=S(=O)(c1nc[nH]n1)c1ccc(C(F)(F)F)cc1Cl` here?
A: Its melting point is 222 to 224 °C.

Q: With `CCOC(=O)CCCN1C(=O)N(c2ccc(C#N)c(C(F)(F)F)c2)C(=O)C12CCOCC2` as the compound, how does the melting point read?
A: Its melting point is 129 to 130 °C.

Q: For `COc1cc(C2=Nc3ccc(N4CCCC4)cc3C(=O)C2)ccc1OCc1ccccc1`, which melting point is on record?
A: Its melting point is 304 to 306 °C.

Q: For `CS(=O)(=O)N1CCN(C(=N)Nc2ccccc2-c2ccccc2)CC1`, which melting point is on record?
A: The melting point was 178 to 180 °C.

Q: For `COC(=O)c1cc(N2CCC2)c(C(F)(F)F)cc1[N+](=O)[O-]`, which melting point is on record?
A: Its melting point is 127 to 136 °C.

Q: For `COc1cc2c(c3c1OC(C)(C)C3)C(c1ccncc1Cl)=NC(C)(C)C2`, which melting point is on record?
A: The melting point was 126 to 128 °C.

Q: With `COCCOC(=O)Cc1cc(Oc2ccc(C(F)(F)F)cc2Cl)ccc1[N+](=O)[O-]` as the compound, how does the melting point read?
A: Its melting point is 71.9 to 72.5 °C.

Q: With `CC(C)(C(=O)O)c1ccc2cc(O)ccc2c1` as the compound, how does the melting point read?
A: The melting point was 208 to 210 °C.

Q: For `CCOC(=O)C(NC(=O)c1ccc(C)c(F)c1)C(=O)OCC`, which melting point is on record?
A: The melting point was 102 to 103 °C.

Q: With `CC1(C)CC(=O)Nc2ccccc21` as the compound, how does the melting point read?
A: The melting point was 111 to 112 °C.

Q: For `O=C(NO)c1cccnc1Cl`, which melting point is on record?
A: The melting point was 179 °C.

Q: With `CCOc1cn(C2CC(O)C(CO)O2)c(=O)[nH]c1=O` (stereo not drawn) as the compound, how does the melting point read?
A: The melting point was 179 to 181 °C.

Q: For `O=c1ccc(-c2ccc(OC3CCN(C4CCCC4)CC3)cc2)n[nH]1`, which melting point is on record?
A: Its melting point is 211 to 213 °C.

Q: For `COc1ccc(S(=O)(=O)N2C(=O)C(O[Si](C)(C)C)(c3ccccc3OC)c3cc(Cl)ccc32)c(OC)c1` (stereo not drawn), which melting point is on record?
A: The melting point was 157 to 158 °C.

Q: For `O=S1(=O)NCN(CCF)c2cc(Cl)c(Br)cc21`, which melting point is on record?
A: Its melting point is 159 to 162 °C.

Q: With `CC(=O)NC[C@H]1CN(c2ccc3c(c2)CCC(C)N3C(=O)OCc2ccccc2)C(=O)O1` (stereo partly drawn) as the compound, how does the melting point read?
A: Its melting point is 126 to 129 °C.

Q: Which melting point does the source give for `COc1ccc(-c2nc(C)c(C(=O)O)s2)cc1` here?
A: Its melting point is 129 to 131 °C.

Q: Which melting point does the source give for `Cc1ccc(-c2nc(C)c(-c3ccnc(Nc4ccc(N5CCOCC5)cc4)n3)s2)c(C)c1` here?
A: The melting point was 191 to 192 °C.

Q: Which melting point does the source give for `CCn1nc(OCC(=O)C(C)(C)C)c(-c2ccc(F)cc2)c1-c1ccc(S(C)(=O)=O)cc1` here?
A: The melting point was 144 to 146 °C.
